Experimental data reported in patent publication US9695155B2, “Herbicidal substituted pyrimidinyloxy benzene compounds” (E. I. DU PONT DE NEMOURS AND COMPANY, priority 2013, dated 2017).

Columns and labels:
pigweed [1] = assay: Test A preemergence; type: in vivo, Amaranthus retroflexus
Procedure, shortened: (§1)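 Scoring: eye-based comparison with untreated controls, 0 for no effect through 100 for complete control, at about day 10. Treatments: directed soil spray preemergence; foliar spray postemergence on 2–10 cm plants at the one- to two-leaf stage. Medium: loam soil with sand.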

barnyardgrass [2] = assay: Test A postemergence; type: in vivo, Echinochloa crus-galli
Procedure, shortened: as §1

morningglory [3] = assay: Test A preemergence; type: in vivo, Ipomoea spp.
Procedure, shortened: as §1

wheat [4] = assay: Test A preemergence; type: in vivo, Triticum aestivum
Procedure, shortened: as §1

pigweed [5] = assay: Test A postemergence; type: in vivo, Amaranthus retroflexus
Procedure, shortened: as §1

Heteranthera limosa = assay: Test B flooded paddy test; type: in vivo; settings: Flood, 250 g ai/ha; 0 to 100 scale where 0 is no effect and 100 is complete control
Procedure, shortened: (§2)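 Post-emergence paddy-water application at the 2-leaf stage, with 3 cm flood kept for the whole test. Response was judged visually relative to controls after 13 to 15 greenhouse days, 0 indicating no effect and 100 complete control.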

barnyardgrass [6] = assay: Test A preemergence; type: in vivo, Echinochloa crus-galli; settings: for Barnyardgrass plant response rating: 500 g ai/ha
Procedure, shortened: as §1

morningglory [7] = assay: Test A postemergence; type: in vivo, Ipomoea spp.
Procedure, shortened: as §1

giant foxtail [8] = assay: Test A postemergence; type: in vivo, Setaria faberii
Procedure, shortened: as §1

barnyardgrass [9] = assay: Test B flooded paddy test; type: in vivo, Echinochloa crus-galli; settings: Flood, 250 g ai/ha; 0 to 100 scale where 0 is no effect and 100 is complete control
Procedure, shortened: as §2

large (Lg) crabgrass [10] = assay: Test A preemergence; type: in vivo, Digitaria sanguinalis; settings: for Crabgrass, Large plant response rating: 500 g ai/ha
Procedure, shortened: as §1

sedge, umbrella = assay: Test B flooded paddy test; type: in vivo, Cyperus difformis; settings: Flood, 250 g ai/ha; 0 to 100 scale where 0 is no effect and 100 is complete control
Procedure, shortened: as §2

velvetleaf [11] = assay: Test A preemergence; type: in vivo, Abutilon theophrasti
Procedure, shortened: as §1

large (Lg) crabgrass [12] = assay: Test A postemergence; type: in vivo, Digitaria sanguinalis
Procedure, shortened: as §1

wheat [13] = assay: Test A postemergence; type: in vivo, Triticum aestivum
Procedure, shortened: as §1

corn [14] = assay: Test A preemergence; type: in vivo, Zea mays; settings: for Corn plant response rating: 500 g ai/ha
Procedure, shortened: as §1

velvetleaf [15] = assay: Test A postemergence; type: in vivo, Abutilon theophrasti
Procedure, shortened: as §1

corn [16] = assay: Test A postemergence; type: in vivo, Zea mays
Procedure, shortened: as §1

giant foxtail [17] = assay: Test A preemergence; type: in vivo, Setaria faberii
Procedure, shortened: as §1

rice = assay: Test B flooded paddy test; type: in vivo, Oryza sativa; settings: Flood, 250 g ai/ha; 0 to 100 scale where 0 is no effect and 100 is complete control
Procedure, shortened: as §2

[18] = 500 g ai/ha, 0 to 100 scale where 0 is no effect and 100 is complete control
[19] = 125 g ai/ha, 0 to 100 scale where 0 is no effect and 100 is complete control
[20] = 0 to 100 scale where 0 is no effect and 100 is complete control
[21] = 500 g ai/ha, 0 to 100 scale, 0 no effect, 100 complete control, approx. 10 days
[22] = 500 g ai/ha, 0 to 100 scale, 0 no effect, 100 complete control
[23] = 0 to 100 scale, 0 no effect, 100 complete control, approx. 10 days
[24] = 1000 g ai/ha, 0 to 100 scale, 0 no effect, 100 complete control, approx. 10 days
[25] = 1000 g ai/ha, 0 to 100 scale, 0 no effect, 100 complete control

## C#Cc1cccc(Oc2ncc(Cl)cn2)c1-n1cc(Br)cn1 [Compound 199]
Pigweed [1]; 125 g ai/ha
  Pigweed plant response rating (0 to 100 scale): 90
Pigweed [1]; [18]
  Pigweed plant response rating: 100
Barnyardgrass [2]; [19]
  Barnyardgrass plant response rating: 30
Barnyardgrass [2]; [18]
  Plant response rating, Barnyardgrass: 80
Morningglory [3]; 125 g ai/ha
  Morningglory plant response rating (0 to 100 scale): 0
Morningglory [3]; [18]
  Morningglory plant response rating: 20
Wheat [4]; 125 g ai/ha
  Wheat plant response rating (0 to 100 scale): 0
Wheat [4]; [18]
  Wheat plant response rating: 0
Pigweed [5]; [19]
  Pigweed plant response rating: 80
Pigweed [5]; [18]
  Plant response rating, Pigweed: 100
Heteranthera limosa
  Plant response rating, Ducksalad: 70
Barnyardgrass [6]; 125 g ai/ha
  Barnyardgrass plant response rating (0 to 100 scale, 0 is no effect, 100 is complete control): 20
Barnyardgrass [6]; [20]
  Barnyardgrass plant response rating: 80
Morningglory [7]; [19]
  Morningglory plant response rating: 40
Morningglory [7]; [18]
  Plant response rating, Morningglory: 60
Giant foxtail [8]; [19]
  Foxtail, Giant plant response rating: 70
Giant foxtail [8]; [18]
  Plant response rating, Foxtail, Giant: 90
Barnyardgrass [9]
  Plant response rating, Barnyardgrass: 0
Large (Lg) crabgrass [10]; 125 g ai/ha
  Crabgrass, Large plant response rating (0 to 100 scale): 100
Large (Lg) crabgrass [10]; [20]
  Crabgrass, Large plant response rating: 100
sedge, umbrella
  Plant response rating, Sedge, Umbrella: 70
Velvetleaf [11]; 125 g ai/ha
  Velvetleaf plant response rating (0 to 100 scale): 20
Velvetleaf [11]; [18]
  Velvetleaf plant response rating: 90
Large (Lg) crabgrass [12]; [19]
  Crabgrass, Large plant response rating: 40
Large (Lg) crabgrass [12]; [18]
  Plant response rating, Crabgrass, Large: 90
Wheat [13]; [19]
  Wheat plant response rating: 0
Wheat [13]; [18]
  Plant response rating, Wheat: 30
Corn [14]; 125 g ai/ha
  Corn plant response rating (0 to 100 scale): 0
Corn [14]; [20]
  Corn plant response rating: 0
Velvetleaf [15]; [19]
  Velvetleaf plant response rating: 70
Velvetleaf [15]; [18]
  Plant response rating, Velvetleaf: 100
Corn [16]; [19]
  Corn plant response rating: 20
Corn [16]; [18]
  Plant response rating, Corn: 60
Giant foxtail [17]; 125 g ai/ha
  Foxtail, Giant plant response rating (0 to 100 scale): 90
Giant foxtail [17]; [18]
  Foxtail, Giant plant response rating: 100
rice
  Plant response rating, Rice: 20

## O=[N+]([O-])c1cccc(Oc2ncc(Cl)cn2)c1-n1cc(Br)cn1 [Compound 63]
Pigweed [1]; [19]
  Plant response rating, Pigweed: 90
Pigweed [1]; [21]
  Pigweed plant response rating: 100
Barnyardgrass [2]; [19]
  Plant response rating, Barnyardgrass: 30
Barnyardgrass [2]; [22]
  Plant response rating, Barnyardgrass: 70
Morningglory [3]; [19]
  Plant response rating, Morningglory: 0
Morningglory [3]; [21]
  Morningglory plant response rating: 0
Wheat [4]; [19]
  Plant response rating, Wheat: 0
Wheat [4]; [21]
  Wheat plant response rating: 0
Pigweed [5]; [19]
  Plant response rating, Pigweed: 70
Pigweed [5]; [22]
  Plant response rating, Pigweed: 100
Heteranthera limosa
  Plant response rating, Ducksalad: 0
Barnyardgrass [6]; [19]
  Plant response rating, Barnyardgrass: 0
Barnyardgrass [6]; [23]
  Barnyardgrass plant response rating: 70
Morningglory [7]; [19]
  Plant response rating, Morningglory: 30
Morningglory [7]; [22]
  Plant response rating, Morningglory: 80
Giant foxtail [8]; [19]
  Plant response rating, Foxtail, Giant: 20
Giant foxtail [8]; [22]
  Plant response rating, Foxtail, Giant: 80
Barnyardgrass [9]
  Plant response rating, Barnyardgrass: 0
Large (Lg) crabgrass [10]; [19]
  Plant response rating, Crabgrass, Large: 80
Large (Lg) crabgrass [10]; [23]
  Crabgrass, Large plant response rating: 100
sedge, umbrella
  Plant response rating, Sedge, Umbrella: 0
Velvetleaf [11]; [19]
  Plant response rating, Velvetleaf: 0
Velvetleaf [11]; [21]
  Velvetleaf plant response rating: 20
Large (Lg) crabgrass [12]; [19]
  Plant response rating, Crabgrass, Large: 30
Large (Lg) crabgrass [12]; [22]
  Plant response rating, Crabgrass, Large: 90
Wheat [13]; [19]
  Plant response rating, Wheat: 0
Wheat [13]; [22]
  Plant response rating, Wheat: 10
Corn [14]; [19]
  Plant response rating, Corn: 0
Corn [14]; [23]
  Corn plant response rating: 0
Velvetleaf [15]; [19]
  Plant response rating, Velvetleaf: 60
Velvetleaf [15]; [22]
  Plant response rating, Velvetleaf: 100
Corn [16]; [19]
  Plant response rating, Corn: 0
Corn [16]; [22]
  Plant response rating, Corn: 30
Giant foxtail [17]; [19]
  Plant response rating, Foxtail, Giant: 20
Giant foxtail [17]; [21]
  Foxtail, Giant plant response rating: 100
rice
  Plant response rating, Rice: 0

## N#Cc1cnc(Oc2ccccc2-n2cccn2)nc1 [Compound 226]
Pigweed [1]; 125 g ai/ha
  Pigweed plant response rating (0 to 100 scale): 0
Pigweed [1]; [18]
  Pigweed plant response rating: 0
Barnyardgrass [2]; [19]
  Barnyardgrass plant response rating: 0
Barnyardgrass [2]; [18]
  Plant response rating, Barnyardgrass: 0
Morningglory [3]; 125 g ai/ha
  Morningglory plant response rating (0 to 100 scale): 0
Morningglory [3]; [18]
  Morningglory plant response rating: 0
Wheat [4]; 125 g ai/ha
  Wheat plant response rating (0 to 100 scale): 0
Wheat [4]; [18]
  Wheat plant response rating: 0
Pigweed [5]; [19]
  Pigweed plant response rating: 0
Pigweed [5]; [18]
  Plant response rating, Pigweed: 10
Heteranthera limosa
  Plant response rating, Ducksalad: 0
Barnyardgrass [6]; 125 g ai/ha
  Barnyardgrass plant response rating (0 to 100 scale, 0 is no effect, 100 is complete control): 0
Barnyardgrass [6]; [20]
  Barnyardgrass plant response rating: 0
Morningglory [7]; [19]
  Morningglory plant response rating: 0
Morningglory [7]; [18]
  Plant response rating, Morningglory: 0
Giant foxtail [8]; [19]
  Foxtail, Giant plant response rating: 0
Giant foxtail [8]; [18]
  Plant response rating, Foxtail, Giant: 0
Barnyardgrass [9]
  Plant response rating, Barnyardgrass: 0
Large (Lg) crabgrass [10]; 125 g ai/ha
  Crabgrass, Large plant response rating (0 to 100 scale): 0
Large (Lg) crabgrass [10]; [20]
  Crabgrass, Large plant response rating: 0
sedge, umbrella
  Plant response rating, Sedge, Umbrella: 0
Velvetleaf [11]; 125 g ai/ha
  Velvetleaf plant response rating (0 to 100 scale): 0
Velvetleaf [11]; [18]
  Velvetleaf plant response rating: 0
Large (Lg) crabgrass [12]; [19]
  Crabgrass, Large plant response rating: 0
Large (Lg) crabgrass [12]; [18]
  Plant response rating, Crabgrass, Large: 0
Wheat [13]; [19]
  Wheat plant response rating: 0
Wheat [13]; [18]
  Plant response rating, Wheat: 0
Corn [14]; 125 g ai/ha
  Corn plant response rating (0 to 100 scale): 0
Corn [14]; [20]
  Corn plant response rating: 0
Velvetleaf [15]; [19]
  Velvetleaf plant response rating: 0
Velvetleaf [15]; [18]
  Plant response rating, Velvetleaf: 10
Corn [16]; [19]
  Corn plant response rating: 0
Corn [16]; [18]
  Plant response rating, Corn: 0
Giant foxtail [17]; 125 g ai/ha
  Foxtail, Giant plant response rating (0 to 100 scale): 0
Giant foxtail [17]; [18]
  Foxtail, Giant plant response rating: 0
rice
  Plant response rating, Rice: 0

## C=C(C)c1cn(-c2c(Br)cccc2Oc2ncc(Cl)cn2)nn1 [Compound 114]
Pigweed [1]; [24]
  Pigweed plant response rating: 100
Barnyardgrass [2]; [25]
  Plant response rating, Barnyardgrass: 100
Morningglory [3]; [24]
  Morningglory plant response rating: 10
Wheat [4]; [24]
  Wheat plant response rating: 40
Pigweed [5]; [25]
  Plant response rating, Pigweed: 100
Heteranthera limosa
  Plant response rating, Ducksalad: 50
Barnyardgrass [6]; [25]
  Plant response rating, Barnyardgrass: 90
Morningglory [7]; [25]
  Plant response rating, Morningglory: 80
Giant foxtail [8]; [25]
  Plant response rating, Foxtail, Giant: 90
Barnyardgrass [9]
  Plant response rating, Barnyardgrass: 0
Large (Lg) crabgrass [10]; [25]
  Plant response rating, Crabgrass, Large: 100
sedge, umbrella
  Plant response rating, Sedge, Umbrella: 30
Velvetleaf [11]; [24]
  Velvetleaf plant response rating: 100
Large (Lg) crabgrass [12]; [25]
  Plant response rating, Crabgrass, Large: 90
Wheat [13]; [25]
  Plant response rating, Wheat: 60
Corn [14]; [25]
  Plant response rating, Corn: 20
Velvetleaf [15]; [25]
  Plant response rating, Velvetleaf: 100
Corn [16]; [25]
  Plant response rating, Corn: 70
Giant foxtail [17]; [24]
  Foxtail, Giant plant response rating: 100
rice
  Plant response rating, Rice: 0

## Clc1cnc(Oc2cccc(I)c2-n2cc(Br)cn2)nc1 [Compound 66]
Pigweed [1]; [24]
  Pigweed plant response rating: 100
Barnyardgrass [2]; [25]
  Plant response rating, Barnyardgrass: 80
Morningglory [3]; [24]
  Morningglory plant response rating: 40
Wheat [4]; [24]
  Wheat plant response rating: 10
Pigweed [5]; [25]
  Plant response rating, Pigweed: 100
Heteranthera limosa
  Plant response rating, Ducksalad: 30
Barnyardgrass [6]; [25]
  Plant response rating, Barnyardgrass: 90
Morningglory [7]; [25]
  Plant response rating, Morningglory: 100
Giant foxtail [8]; [25]
  Plant response rating, Foxtail, Giant: 100
Barnyardgrass [9]
  Plant response rating, Barnyardgrass: 0
Large (Lg) crabgrass [10]; [25]
  Plant response rating, Crabgrass, Large: 100
sedge, umbrella
  Plant response rating, Sedge, Umbrella: 0
Velvetleaf [11]; [24]
  Velvetleaf plant response rating: 90
Large (Lg) crabgrass [12]; [25]
  Plant response rating, Crabgrass, Large: 100
Wheat [13]; [25]
  Plant response rating, Wheat: 20
Corn [14]; [25]
  Plant response rating, Corn: 30
Velvetleaf [15]; [25]
  Plant response rating, Velvetleaf: 100
Corn [16]; [25]
  Plant response rating, Corn: 40
Giant foxtail [17]; [24]
  Foxtail, Giant plant response rating: 100
rice
  Plant response rating, Rice: 0
